Laboratory results as given in patent publication US20120142771A1, “BIPHENYLACETAMIDE DERIVATIVE” (Dainippon Sumitomo Pharma Co., Ltd., priority 2008, published 2012).

System: 6 Hz psychomotor seizure model
Assay: 6 Hz psychomotor seizure model
Format: in vivo, mice
Details: mice
Method in brief: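 Anticonvulsant activity was tested in the 6 Hz psychomotor seizure model in mice, a model reflecting seizures resistant to current antiepileptic drugs. 30 minutes or an hour after dosing, corneal electrical stimulation (6 Hz, 32 mA, 3 seconds) was applied to provoke forelimb myoclonus, Straub tail and immobility. Control mice received 0.5% tragacanth solution, 0.5% methylcellulose solution or olive oil.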

How did the ED50 (Mus musculus, 6 Hz psychomotor seizure model, oral, read-out: ED50) turn out when NC(=O)Cc1ccccc1-c1ccccc1F [Example 1, 2-(2′-Fluorobiphenyl-2-yl)acetamide] was run?
The ED50 was 56.2 mg/kg.

And the “efficacy in 6 Hz psychomotor seizure model” value (oral administration at a dose of 100 mg/kg)?
The value was “potent efficacy”.

What about the “6 Hz (Positive number/tested number)” value (oral, dose 100 mg/kg, 30 minutes or 1 hour after administration) of the same compound?
Its value is 10/10/100.
